These results are taken from patent publication US10047105B2, “Gyrase inhibitors” (Merck Sharp & Dohme Corp., priority 2009, dated 2018).

The structures appear in SMILES notation. ≈ marks a conversion by molar mass, not a printed value.

What all share (format): cell-based
For one assay, the system named is S. pneumoniae ATCC 51916. Briefly: MIC, S. pneumoniae. The conditions noted are these: S. pneumoniae (Spn52); in µg/mL.
A further assay has as its system E. coli 8 ATCC 25922. Briefly: MIC, E. coli 8 (wt). The conditions noted are these: E. coli 8 (EC8).
Another assay has as its system S. aureus ATCC 13709. Briefly: MIC, antibacterial potency, S. aureus. As to conditions: S. aureus (SA); in µg/mL.

Regarding `CCc1[nH]c2nc(Oc3cccc(C#N)c3)nc(C(C)NCCO)c2c1Cl` (stereo not drawn) [700,953], the “MIC Spn52” value in the assay on S. pneumoniae ATCC 51916 was over 32. Also, the MIC EC8 with E. coli 8 ATCC 25922 was over 32 µg/mL. Further, in the assay on S. aureus ATCC 13709, the “MIC, SA” value is over 32.
In the case of `CCc1[nH]c2nc(Oc3cccc(C#N)c3)nc(C(C)(NO)NO)c2c1Cl` [700,954], the “MIC Spn52” value in the assay on S. pneumoniae ATCC 51916 was over 32. In the assay on E. coli 8 ATCC 25922, this compound showed an MIC EC8 of over 32 µg/mL. For the same compound, in the assay on S. aureus ATCC 13709, the “MIC, SA” value is over 32.
For the compound `CCc1[nH]c2nc(Sc3ccc4c(N5CC[C@@H](N)C5)nc(C(=O)O)nc4c3)nc(N3CC[C@@H](N)C3)c2c1Cl` [700,955], in the assay on S. pneumoniae ATCC 51916, the “MIC Spn52” value was over 64. In the assay on E. coli 8 ATCC 25922, the MIC EC8 came to 16 µg/mL (≈ 28.9 µM). In the assay on S. aureus ATCC 13709, the “MIC, SA” value was determined as 8.
Consider `CCc1[nH]c2nc(Sc3ccc4c(N5CC(CN)C5)nc(C)nc4c3)nc(N3CC4C(C3)C4(N)C(N)=O)c2c1Cl` (stereo not drawn) [700,956], for which the “MIC Spn52” value in the assay with S. pneumoniae ATCC 51916 worked out at 32. Moreover, the MIC EC8 against E. coli 8 ATCC 25922 is over 64 µg/mL. Besides, in the assay on S. aureus ATCC 13709, the “MIC, SA” value is 8.
The corresponding values for `CCc1[nH]c2nc(Sc3cnc4nccnc4c3)nc(N3CC4CC(O)C4C3)c2c1Cl` (stereo not drawn) [700,957] are 1, over 32 µg/mL and “<=0.5”.
`CCc1[nH]c2nc(Sc3cnc4cccnc4c3)nc(N3C[C@@H]4NCCO[C@H]4C3)c2c1Cl` [700,958]: the “MIC Spn52” value in the assay on S. pneumoniae ATCC 51916 came out at 4. The compound further registered an MIC EC8 in the assay with E. coli 8 ATCC 25922 of over 32 µg/mL. In the assay on S. aureus ATCC 13709, the “MIC, SA” value worked out at 2.
The like results for `CCc1[nH]c2nc(Sc3cnc4cccnc4c3)nc(N3C[C@@H]4NCCO[C@@H]4C3)c2c1Cl` [700,959] were, in that order, 2, over 64 µg/mL and 2.
With `CCc1[nH]c2nc(Sc3ccc4c(N5CC(N)C5)ncnc4c3)nc(N3C[C@@H]4[C@H](C3)[C@@]4(N)C(N)=O)c2c1Cl` [700,960], in the assay on S. pneumoniae ATCC 51916, the “MIC Spn52” value is reported as 2. The MIC EC8 against E. coli 8 ATCC 25922 is over 32 µg/mL. In the assay with S. aureus ATCC 13709, the “MIC, SA” value stood at 2.
For the compound `CCc1[nH]c2nc(Oc3ccc4nccnc4c3)nc(C(C)=O)c2c1Cl` [700,961], the “MIC Spn52” value in the assay with S. pneumoniae ATCC 51916 is on record as 1. This compound returned an MIC EC8 with E. coli 8 ATCC 25922 of over 64 µg/mL. Also, the “MIC, SA” value against S. aureus ATCC 13709 is reported as 1.
`CCc1[nH]c2nc(Oc3ccc4nccnc4c3)nc(N(C)C)c2c1Cl` [700,962]: the “MIC Spn52” value in the assay with S. pneumoniae ATCC 51916 worked out at 2. In the assay with E. coli 8 ATCC 25922, this compound registered an MIC EC8 of over 8 µg/mL. For the same compound, the “MIC, SA” value with S. aureus ATCC 13709 is recorded as “<=0.5”.
As to `CCc1[nH]c2nc(Oc3ccc4nccnc4c3)nc(N3CC(N)C3)c2c1Cl` [700,963], in the assay on S. pneumoniae ATCC 51916, the “MIC Spn52” value amounted to 4. For the same compound, the MIC EC8 against E. coli 8 ATCC 25922 was over 64 µg/mL. In addition, in the assay with S. aureus ATCC 13709, the “MIC, SA” value is recorded as 1.
The like results for `CCc1[nH]c2nc(Oc3cnc4c(c3)ncn4C)nc(Oc3cncc(OC)c3)c2c1Br` [700,964] were, in that order, “<=0.5”, over 64 µg/mL and “<=0.5”.
Take `CCc1[nH]c2nc(Oc3ccc4nccnc4c3)nc(Oc3cncnc3)c2c1Br` [700,965]: the “MIC Spn52” value against S. pneumoniae ATCC 51916 is reported as “<=0.5”. In addition, the MIC EC8 with E. coli 8 ATCC 25922 was 64 µg/mL (≈ 138 µM). The “MIC, SA” value in the assay on S. aureus ATCC 13709 is on record as “<=0.5”.
On to `CCc1[nH]c2nc(Oc3cncc(C#N)c3)nc(Oc3cccc(OC)c3)c2c1Br` [700,966], for which the “MIC Spn52” value with S. pneumoniae ATCC 51916 is recorded as “<=0.5”. The compound further registered an MIC EC8 against E. coli 8 ATCC 25922 of over 64 µg/mL. In the assay with S. aureus ATCC 13709, the “MIC, SA” value is “<=0.5”.
For `CCc1[nH]c2nc(Sc3cncnc3)nc(N3CC4C(C3)C4(N)C(N)=O)c2c1Cl` (stereo not drawn) [700,967], the “MIC Spn52” value in the assay with S. pneumoniae ATCC 51916 is 4. In the assay on E. coli 8 ATCC 25922, this compound came in with an MIC EC8 of over 64 µg/mL. For the same compound, the “MIC, SA” value with S. aureus ATCC 13709 is recorded as “<=0.5”.
For the compound `CCc1[nH]c2nc(Sc3cnc(N)nc3)nc(N3CC4C(C3)C4(N)C(N)=O)c2c1Cl` (stereo not drawn) [700,968], the “MIC Spn52” value against S. pneumoniae ATCC 51916 was over 64. Further, the MIC EC8 in the assay with E. coli 8 ATCC 25922 is over 64 µg/mL. The “MIC, SA” value with S. aureus ATCC 13709 is reported as 2.
`CCc1[nH]c2nc(Sc3cncc(C#N)c3)nc(N3CC4C(C3)C4(N)C(N)=O)c2c1Cl` (stereo not drawn) [700,969]: the “MIC Spn52” value in the assay with S. pneumoniae ATCC 51916 was 2. Further, the MIC EC8 against E. coli 8 ATCC 25922 was over 64 µg/mL. Moreover, the “MIC, SA” value against S. aureus ATCC 13709 is recorded as “<=0.5”.
For `CCc1[nH]c2nc(Sc3cc(C(=O)O)c4cnccc4c3)nc(N3CC[C@@H](N)C3)c2c1Cl` [700,970], in the assay on S. pneumoniae ATCC 51916, the “MIC Spn52” value is recorded as 32. For the same compound, in the assay on E. coli 8 ATCC 25922, the MIC EC8 was over 64 µg/mL. The “MIC, SA” value against S. aureus ATCC 13709 was determined as 8.
On to `CCc1[nH]c2nc(Sc3ccc4cc5c([n+]([O-])c4c3)CCNC5)nc(N3CC4C(C3)C4(N)C(N)=O)c2c1Cl` (stereo not drawn) [700,971], for which the “MIC Spn52” value with S. pneumoniae ATCC 51916 is 2. Further, the MIC EC8 with E. coli 8 ATCC 25922 is over 64 µg/mL. Moreover, the “MIC, SA” value against S. aureus ATCC 13709 was “<=0.5”.
On to `CCc1[nH]c2nc(Sc3ccc4cc5c([n+]([O-])c4c3)CCNC5)nc(N3CC4C(N)C4C3)c2c1Cl` (stereo not drawn) [700,972], for which the “MIC Spn52” value in the assay on S. pneumoniae ATCC 51916 came out at 1. Also, the MIC EC8 against E. coli 8 ATCC 25922 worked out at 4 µg/mL (≈ 7.87 µM). Besides, the “MIC, SA” value against S. aureus ATCC 13709 is “<=0.5”.
On to `CCc1[nH]c2nc(Sc3ccc4c(c3)C(=O)NC4)nc(N3CC4C(C3)C4(N)C(N)=O)c2c1Cl` (stereo not drawn) [700,973], for which, in the assay with S. pneumoniae ATCC 51916, the “MIC Spn52” value was determined as 2. The same compound gave an MIC EC8 against E. coli 8 ATCC 25922 of over 64 µg/mL. Also, the “MIC, SA” value in the assay with S. aureus ATCC 13709 is “<=0.5”.
The like results for `CCc1[nH]c2nc(Sc3ccc4c(c3)C(=O)NC4)nc(N3CC4C(N)C4C3)c2c1Cl` (stereo not drawn) [700,974] were, in that order, 2, 32 µg/mL (≈ 72.6 µM) and “<=0.5”.
